Laboratory results taken from US20070128179A1 (priority 2005, published 2007).
Values after ≈ are worked out from the molar mass of the structure shown. Like-named read-outs stand apart in the source and are kept apart here. No end group written: not given here.

What was measured:
[1] = tested on: B. pseudomallei (strain TES); assay: microbe, parasite or virus in culture; type: cell-based, Burkholderia pseudomallei; conditions: 24 h; for MIC: Burkholderia pseudomallei, read-out: MIC (breaking point)
THP-1 cells = type: cell-based, Human
[2] = tested on: B. pseudomallei (strain KHW); conditions: 24 h
[3] = tested on: severe meloidosis patients; conditions: human, in vivo; cited from earlier work
[4] = tested on: B. pseudomallei (strain KHW); assay: microbe, parasite or virus in culture; conditions: Burkholderia pseudomallei, 24 h, read-out: MIC (breaking point)
Staphylococcus aureus = type: cell-based
Enterobacter aerogenes = type: cell-based
Proteus vulgaris = type: cell-based
Proteus mirabilis = type: cell-based
Pseudomonas aeruginosa = type: cell-based
Escherichia coli = type: cell-based
[5] = tested on: THP-1 cells (Human macrophage)
Burkholderia cepacia = conditions: 50 μg/mL; cited from earlier work
23 tested strains = conditions: cited from earlier work

## CC(C)(O/N=C(\C(=O)N[C@@H]1C(=O)N2C(C(=O)[O-])=C(C[n+]3ccccc3)CS[C@H]12)c1csc(N)n1)C(=O)O [Ceftazidime]
[1]; 0.03125 mg/mL
  optical density (560 nm) of bacterial growth, strain TES: 0.49
  percentage in parentheses (susceptibility), strain TES: (33%)
[1]; 0.0625 mg/mL
  optical density (560 nm) of bacterial growth, strain TES: 0.35
  percentage in parentheses (susceptibility), strain TES: (47%)
[1]; 0.125 mg/mL
  optical density (560 nm) of bacterial growth, strain TES: 0.09
[1]; 0.25 mg/mL
  optical density (560 nm) of bacterial growth, strain TES: 0.03
  percentage in parentheses (susceptibility), strain TES: (86%)
[1]; 0.5 mg/mL
  optical density (560 nm) of bacterial growth, strain TES: 0.01
  percentage in parentheses (susceptibility), strain TES: (88%)
[1]
  MIC: 125 mg/L (≈ 229 µM)
THP-1 cells
  gene expression: majority of the genes were up regulated
[2]; 0.03125 mg/mL
  optical density (560 nm) of bacterial growth, strain KHW: 0.44
  percentage in parentheses (susceptibility), strain KHW: (22%)
[2]; 0.0625 mg/mL
  optical density (560 nm) of bacterial growth, strain KHW: 0.24
  percentage in parentheses (susceptibility), strain KHW: (24%)
[2]; 0.125 mg/mL
  optical density (560 nm) of bacterial growth, strain KHW: 0.04
  percentage in parentheses (susceptibility), strain KHW: (62%)
[2]; 0.25 mg/mL
  optical density (560 nm) of bacterial growth, strain KHW: 0.05
  percentage in parentheses (susceptibility), strain KHW: (61%)
[2]; 0.5 mg/mL
  optical density (560 nm) of bacterial growth, strain KHW: 0.08
  percentage in parentheses (susceptibility), strain KHW: (58%)
[3]
  mortality: 37%
[4]
  MIC: 125 mg/L (≈ 229 µM)

## O=C(N[C@H](CO)[C@H](O)c1ccc([N+](=O)[O-])cc1)C(Cl)Cl [Chloramphenicol]
Staphylococcus aureus
  Size of inhibition zone, Sa (+): 35.1 ± 1.26 mm
Enterobacter aerogenes
  Size of inhibition zone, Ea (−): 27.8 ± 1.09 mm
Proteus vulgaris
  Size of inhibition zone, Pv (−): 24.6 ± 0.86 mm
Proteus mirabilis
  Size of inhibition zone, Pm (−): 33 ± 2.34 mm
Pseudomonas aeruginosa
  Size of inhibition zone, Pa (−): 25 ± 0.70 mm
Escherichia coli
  Size of inhibition zone, Ec (−): 31.8 ± 1.64 mm
[1]; 0.03125 mg/mL
  optical density (560 nm) of bacterial growth, strain TES: 0.37
  percentage in parentheses (susceptibility), strain TES: (38%)
[1]; 0.0625 mg/mL
  optical density (560 nm) of bacterial growth, strain TES: 0.34
  percentage in parentheses (susceptibility), strain TES: (41%)
[1]; 0.125 mg/mL
  optical density (560 nm) of bacterial growth, strain TES: 0.07
[1]; 0.25 mg/mL
  optical density (560 nm) of bacterial growth, strain TES: 0.04
  percentage in parentheses (susceptibility), strain TES: (73%)
[1]; 0.5 mg/mL
  optical density (560 nm) of bacterial growth, strain TES: 0.026
  percentage in parentheses (susceptibility), strain TES: (74%)
[1]
  MIC: 125 mg/L (≈ 387 µM)
[2]; 0.03125 mg/mL
  optical density (560 nm) of bacterial growth, strain KHW: 0.51
  percentage in parentheses (susceptibility), strain KHW: (1%)
[2]; 0.0625 mg/mL
  optical density (560 nm) of bacterial growth, strain KHW: 0.42
  percentage in parentheses (susceptibility), strain KHW: (10%)
[2]; 0.125 mg/mL
  optical density (560 nm) of bacterial growth, strain KHW: 0.07
  percentage in parentheses (susceptibility), strain KHW: (60%)
[2]; 0.25 mg/mL
  optical density (560 nm) of bacterial growth, strain KHW: 0.03
  percentage in parentheses (susceptibility), strain KHW: (64%)
[2]; 0.5 mg/mL
  optical density (560 nm) of bacterial growth, strain KHW: 0.01
  percentage in parentheses (susceptibility), strain KHW: (68%)
[3]
  mortality: 74%
[4]
  MIC: 125 mg/L (≈ 387 µM)

## [H]/N=C(/N)N[C@H]1[C@H](O)[C@@H](O)[C@H](O[C@@H]2O[C@@H](C)[C@](O)(C=O)[C@H]2O[C@@H]2O[C@@H](CO)[C@H](O)[C@@H](O)[C@@H]2NC)[C@@H](N/C(N)=N\[H])[C@@H]1O [Streptomycin]
Staphylococcus aureus
  Size of inhibition zone, Sa (+): 30.3 ± 0.77 mm
Enterobacter aerogenes
  Size of inhibition zone, Ea (−): 15.7 ± 0.44 mm
Proteus vulgaris
  Size of inhibition zone, Pv (−): 18.2 ± 0.83 mm
Proteus mirabilis
  Size of inhibition zone, Pm (−): 27.8 ± 1.09 mm
Pseudomonas aeruginosa
  Size of inhibition zone, Pa (−): 16.5 ± 0.50 mm
Escherichia coli
  Size of inhibition zone, Ec (−): 29.4 ± 0.89 mm

## CC[C@H](C)[C@H](NC(=O)CN)C(=O)NCC(=O)N[C@@H](C)C(=O)N[C@H](C(=O)N[C@@H](CC(C)C)C(=O)N[C@@H](CCCCN)C(=O)N[C@H](C(=O)N[C@@H](CC(C)C)C(=O)N[C@H](C(=O)N[C@H](C(=O)NCC(=O)N[C@@H](CC(C)C)C(=O)N1CCC[C@H]1C(=O)N[C@@H](C)C(=O)N[C@@H](CC(C)C)C(=O)N[C@H](C(=O)N[C@@H](CO)C(=O)N[C@@H](Cc1c[nH]c2ccccc12)C(=O)N[C@H](C(=O)N[C@@H](CCCCN)C(=O)N[C@@H](CCCNC(=N)N)C(=O)N[C@@H](CCCCN)C(=O)N[C@@H](CCCNC(=N)N)C(=O)N[C@@H](CCC(N)=O)C(=O)N[C@@H](CCC(N)=O)C(N)=O)[C@@H](C)CC)[C@@H](C)CC)[C@@H](C)O)[C@@H](C)O)C(C)C)C(C)C [melittin]
[2]
  MIC (breaking point): 250 mg/L (≈ 87.8 µM)

## Penicillin
Staphylococcus aureus
  Size of inhibition zone, Sa (+): 17.4 ± 0.89 mm
Enterobacter aerogenes
  Size of inhibition zone, Ea (−): 18.3 ± 0.85 mm
Proteus vulgaris
  Size of inhibition zone, Pv (−): 16.7 ± 0.98 mm
Proteus mirabilis
  Size of inhibition zone, Pm (−): 27.8 ± 1.10 mm
Pseudomonas aeruginosa
  Size of inhibition zone, Pa (−): 16.6 ± 0.89 mm
Escherichia coli
  Size of inhibition zone, Ec (−): 15.2 ± 0.84 mm

## Triton X-100
[5]
  cell death: 90%
Human red blood cells
  hemolytic activity: 100%

## hBD-3 (GIINTLQKYYCRVRGGRCAVLSCLPKEEQIGKCSTRGRKCCRRKK; ends and bridges not checked; cysteine pairing not given here; UniProt P81534 23-67, looked up)
Burkholderia cepacia
  effect: did not show any effect
23 tested strains
  MBCs: > 100 µg/mL
